# Reference: patent US11780834B2, “Solid forms of 3-((1R,3R)-1-(2,6-difluoro-4-((1-(3-fluoropropyl)azetidin-3-yl)amino)phenyl)-3-methyl-1,3,4,9-tetrahydro-2H-pyrido[3,4-b]indol-2-yl)-2,2-difluoropropan-1-ol and processes for preparing fused tricyclic compounds comprising a substituted phenyl or pyridinyl moiety, including methods …” (Hoffmann-La Roche Inc., priority 2018, dated 2023)
# Structures can show the parent of a compound that is named as a salt. Where two headings read alike, the source gives them in different places.
# Legend:
# [1] = tested on: xenograft models of ER-positive breast cancer
# ER = ER (Homo sapiens, UniProt P03372); test: ER degradation and ER pathway suppression; assay type: cell-based; settings: compared to GDC-0927 and GDC-0810
# CYP2C9 = molecular target: T1, CYP2C9 (Homo sapiens, UniProt P11712); test: CYP2C9 metabolism dependent inhibition; assay type: in vitro ADME
# T1 construct: from tissue; host or cells: human liver microsomes
# CYP2B6 = molecular target: T2, CYP2B6 (Homo sapiens, UniProt P20813); test: CYP2B6 inhibition in human liver microsomes; assay type: in vitro ADME
# T2 construct: from tissue; host or cells: human liver microsomes
# T2 sequence (P20813 1-491): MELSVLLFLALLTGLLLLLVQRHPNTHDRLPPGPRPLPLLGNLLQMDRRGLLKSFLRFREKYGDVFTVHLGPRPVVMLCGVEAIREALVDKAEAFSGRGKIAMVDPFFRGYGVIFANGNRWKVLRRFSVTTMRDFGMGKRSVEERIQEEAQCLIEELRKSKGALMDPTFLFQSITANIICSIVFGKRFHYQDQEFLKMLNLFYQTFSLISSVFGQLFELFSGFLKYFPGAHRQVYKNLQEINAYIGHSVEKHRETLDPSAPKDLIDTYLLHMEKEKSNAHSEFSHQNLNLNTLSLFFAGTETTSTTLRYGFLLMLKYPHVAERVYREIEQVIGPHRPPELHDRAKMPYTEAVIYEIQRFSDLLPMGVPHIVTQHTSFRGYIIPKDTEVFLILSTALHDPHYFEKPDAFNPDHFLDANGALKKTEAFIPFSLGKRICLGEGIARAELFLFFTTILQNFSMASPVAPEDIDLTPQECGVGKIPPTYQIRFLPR
# [2] = Oral bioavailability in monkeys; settings: monkey, in vivo
# [3] = tested on: LBD of both wild-type and mutant ER; test: Competitive binding to ER ligand-binding domain
# CYP2C8 = molecular target: T3, CYP2C8 (Homo sapiens, UniProt P10632); test: CYP2C8 inhibition in human liver microsomes; assay type: in vitro ADME
# T3 construct: from tissue; host or cells: human liver microsomes
# T3 sequence (P10632 1-490): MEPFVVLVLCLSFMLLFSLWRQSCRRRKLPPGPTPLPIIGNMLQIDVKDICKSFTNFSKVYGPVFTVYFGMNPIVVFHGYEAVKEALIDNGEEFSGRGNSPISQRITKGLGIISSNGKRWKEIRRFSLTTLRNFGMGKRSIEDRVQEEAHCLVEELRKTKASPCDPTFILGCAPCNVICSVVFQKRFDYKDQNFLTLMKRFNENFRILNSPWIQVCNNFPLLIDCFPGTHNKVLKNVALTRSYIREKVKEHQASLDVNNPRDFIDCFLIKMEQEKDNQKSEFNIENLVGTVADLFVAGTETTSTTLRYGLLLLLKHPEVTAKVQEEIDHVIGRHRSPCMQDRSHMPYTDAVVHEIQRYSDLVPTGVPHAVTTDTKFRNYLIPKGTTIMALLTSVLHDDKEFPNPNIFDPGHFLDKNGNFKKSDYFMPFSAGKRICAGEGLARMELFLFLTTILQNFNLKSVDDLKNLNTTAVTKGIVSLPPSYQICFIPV
# [4] = Pharmacokinetics after single IV administration; assay type: in vivo, and monkeys; settings: rats, dogs, monkeys
# [5] = Four-week GLP repeat-dose oral toxicity study in female monkeys
# [6] = Approximate solubility of Compound B Form B material in 20 solvents at RT; assay type: physicochemical
# Procedure: Polymorph Screening of L-Tartrate. The solubility of Compound B Form B material was estimated in 20 solvents at RT. (Table 22). Approximately 2 mg solids were added into a 3-mL glass vial. Solvents in Table 6-7 were then added into the vials stepwise until the solids were dissolved or a total volume of 1 mL was reached. Results of Table 22 were used to guide the solvent selection in polymorph screening. Polymorph screening experiments were performed using different solution crystallization or solid phase transition methods.
# [7] = monkey, in vivo
# [8] = Stress stability of solid forms at elevated temperature and humidity (XRPD, impurities); assay type: physicochemical; settings: 40° C./75% RH, one month, tartrate
# Procedure: Preliminary stress stability analysis of Compound B Form B. The XRPD patterns of Compound A salts (fumarate and tartrate) exposed to 40° C./75% RH for one month under open conditions.
# XRPD of one-month stability sample.
# [9] = Four-week GLP repeat-dose oral toxicity study in female rats
# [10] = In vitro metabolite identification; assay type: in vitro ADME
# [11] = Oral bioavailability in rats and dogs; settings: rat, dog, in vivo
# [12] = female, rat, in vivo, po, 28 days
# CYP3A4 = CYP3A4 (Homo sapiens, UniProt P08684); settings: read-out: CYP3A4 inhibition IC50, direct inhibition, human liver microsomes
# [13] = female, monkey, plasma, po, 60 mg/kg/day
# [14] = female, rat, plasma, po, 100 mg/kg
# Chain of CYP3A4 (P08684 whole entry): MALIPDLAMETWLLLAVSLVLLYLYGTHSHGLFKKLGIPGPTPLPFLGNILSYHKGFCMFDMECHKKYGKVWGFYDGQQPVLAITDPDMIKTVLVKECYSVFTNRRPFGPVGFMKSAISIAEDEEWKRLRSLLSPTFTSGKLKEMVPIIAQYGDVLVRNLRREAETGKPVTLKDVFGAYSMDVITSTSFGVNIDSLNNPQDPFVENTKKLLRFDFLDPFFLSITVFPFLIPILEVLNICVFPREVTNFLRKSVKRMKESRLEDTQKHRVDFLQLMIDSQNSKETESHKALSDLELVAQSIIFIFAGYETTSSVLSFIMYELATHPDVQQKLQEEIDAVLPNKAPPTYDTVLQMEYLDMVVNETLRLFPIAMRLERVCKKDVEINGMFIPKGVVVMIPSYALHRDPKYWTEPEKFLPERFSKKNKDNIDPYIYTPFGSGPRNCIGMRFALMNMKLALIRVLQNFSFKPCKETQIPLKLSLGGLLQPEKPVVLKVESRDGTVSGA
# T1 sequence (P11712 whole entry): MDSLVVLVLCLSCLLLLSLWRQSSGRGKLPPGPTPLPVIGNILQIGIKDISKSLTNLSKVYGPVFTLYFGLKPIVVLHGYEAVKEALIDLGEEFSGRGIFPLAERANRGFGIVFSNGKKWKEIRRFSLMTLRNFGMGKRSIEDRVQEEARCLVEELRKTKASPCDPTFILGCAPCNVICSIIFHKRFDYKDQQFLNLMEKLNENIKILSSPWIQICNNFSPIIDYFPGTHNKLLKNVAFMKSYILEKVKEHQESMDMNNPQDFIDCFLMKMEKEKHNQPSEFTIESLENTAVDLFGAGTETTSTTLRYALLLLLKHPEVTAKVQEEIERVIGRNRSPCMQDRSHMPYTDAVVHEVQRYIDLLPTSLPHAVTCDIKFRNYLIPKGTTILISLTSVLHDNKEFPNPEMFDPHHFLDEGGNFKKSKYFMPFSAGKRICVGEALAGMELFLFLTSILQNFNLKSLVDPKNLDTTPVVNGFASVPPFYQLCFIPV
# Chain of ER (P03372 whole entry): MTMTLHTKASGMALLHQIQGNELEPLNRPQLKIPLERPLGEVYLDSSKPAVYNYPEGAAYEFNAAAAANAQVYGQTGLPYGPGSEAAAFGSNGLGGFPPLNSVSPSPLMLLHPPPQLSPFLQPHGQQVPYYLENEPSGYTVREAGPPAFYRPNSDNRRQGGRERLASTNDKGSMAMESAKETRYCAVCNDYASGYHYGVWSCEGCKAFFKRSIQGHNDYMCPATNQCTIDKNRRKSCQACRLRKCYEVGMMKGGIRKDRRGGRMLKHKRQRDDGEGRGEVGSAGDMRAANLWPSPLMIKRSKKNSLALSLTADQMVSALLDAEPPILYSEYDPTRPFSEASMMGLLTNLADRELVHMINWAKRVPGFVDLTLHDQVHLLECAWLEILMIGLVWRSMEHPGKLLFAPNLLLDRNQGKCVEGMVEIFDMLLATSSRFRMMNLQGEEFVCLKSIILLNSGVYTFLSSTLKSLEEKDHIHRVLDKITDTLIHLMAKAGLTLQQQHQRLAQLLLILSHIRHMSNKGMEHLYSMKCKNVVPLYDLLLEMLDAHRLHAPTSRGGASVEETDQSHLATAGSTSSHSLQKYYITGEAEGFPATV
compound,measurement,setting,value
"C[C@@H]1Cc2c([nH]c3ccccc23)[C@@H](c2c(F)cc(NC3CN(CCCF)C3)cc2F)N1CC(F)(F)CO [Compound B, 3-((1R,3R)-1-(2,6-difluoro-4-((1-(3-fluoropropyl)azetidin-3-yl)amino)phenyl)-3-methyl-1,3,4,9-tetrahydro-2H-pyrido[3,4-b]indol-2-yl)-2,2-difluoropropan-1-ol tartrate]",Tolerability of doses in xenograft models,[1]; in vivo,well tolerated
same,Anti-tumor activity,[1]; including patient-derived xenograft with ESR1 mutation (ER.Y537S),dose-dependent anti-tumor activity
same,Fold lower dose giving same in vivo efficacy as GDC-0927,[1]; vs GDC-0927,100 ×
same,Efficacious dose range,[1]; xenograft models,0.1 to 10 mg/kg/day
same,ER degradation & ER pathway suppression,ER,superior
same,Metabolism dependent inhibition of CYP2C9,CYP2C9,weak
same,IC50,CYP2B6,13 µM
same,bioavailability,[2],17%
same,Potency of competitive binding to ER LBD,[3],nanomolar potency
same,IC50,CYP2C8,21 µM
same,half-life,"[4]; rat, dog, monkey, in vivo, read-out: Terminal elimination half-life",7 to 24 h
same,Clearance,[4],low to moderate
same,Volume of distribution,[4],large
same,MTD at 4 weeks,"[5]; female, monkey, in vivo, po",60 mg/kg
same,AUC(0-t),[5]; [13],16200 ng·h/mL
same,Cmax,[5]; [13],841 ng/mL
same,Exposure multiple (AUC) over anticipated human Phase I starting dose at which PLD was observed,[5]; monkeys,≥ 6 fold
same,Exposure factor,"[5]; monkeys, 20 mg/kg",6 fold
same,PLD finding,"[5]; monkeys, 20 mg/kg",limited to minimal changes in the lung
same,Increase in systemic exposure with dose,"[5]; monkeys, 28-day oral",dose proportional
same,solubility,"[6]; organic solvent or mixture, thermodynamic from solid, 1,4-Dioxane",< 2200 µg/mL
same,solubility,"[6]; organic solvent or mixture, thermodynamic from solid, 2-MeTHF",< 1900 µg/mL
same,solubility,"[6]; organic solvent or mixture, thermodynamic from solid, ACN",< 2100 µg/mL
same,solubility,"[6]; organic solvent or mixture, thermodynamic from solid, Acetone",2100 to 7000 µg/mL
same,solubility,"[6]; organic solvent or mixture, thermodynamic from solid, Anisole",< 1900 µg/mL
same,solubility,"[6]; organic solvent or mixture, thermodynamic from solid, CPME",< 2100 µg/mL
same,solubility,"[6]; organic solvent or mixture, thermodynamic from solid, DCM",< 2000 µg/mL
same,solubility,"[6]; organic solvent or mixture, thermodynamic from solid, DMSO",> 38000 µg/mL
same,solubility,"[6]; organic solvent or mixture, thermodynamic from solid, EtOAc",< 1900 µg/mL
same,solubility,"[6]; organic solvent or mixture, thermodynamic from solid, EtOH",< 1900 µg/mL
same,solubility,"[6]; organic solvent or mixture, thermodynamic from solid, IPA",< 2100 µg/mL
same,solubility,"[6]; organic solvent or mixture, thermodynamic from solid, IPAc",< 1900 µg/mL
same,solubility,"[6]; organic solvent or mixture, thermodynamic from solid, MEK",< 2000 µg/mL
same,solubility,"[6]; organic solvent or mixture, thermodynamic from solid, MIBK",< 1900 µg/mL
same,solubility,"[6]; organic solvent or mixture, thermodynamic from solid, MTBE",< 2100 µg/mL
same,solubility,"[6]; organic solvent or mixture, thermodynamic from solid, MeOH",6700 to 20000 µg/mL
same,solubility,"[6]; organic solvent or mixture, thermodynamic from solid, THF",2100 to 7000 µg/mL
same,solubility,"[6]; organic solvent or mixture, thermodynamic from solid, Toluene",< 1900 µg/mL
same,solubility,"[6]; organic solvent or mixture, thermodynamic from solid, n-Heptane",< 2000 µg/mL
same,solubility,"[6]; water, thermodynamic from solid, H2O",< 1900 µg/mL
same,Highest non-severely toxic dose,"[7]; female, po, 28 days",60 mg/kg/day
same,Tolerability at high dose,[7]; 200 mg/kg,not tolerated
same,Solid form (XRPD) after stress stability,[8]; open,did not change
same,Impurities after stress stability,[8]; listed as tartrate salt,lacked the impurities
same,AUC(0-t),[9]; [14],143000 ng·h/mL
same,Cmax,[9]; [14],6560 ng/mL
same,Exposure multiple (AUC) over anticipated human Phase I starting dose at which PLD was observed,[9]; rats,at least 44 fold
same,Exposure factor,"[9]; rats, 10 mg/kg",18 fold
same,PLD finding,"[9]; rats, 10 mg/kg",not noted
same,Increase in systemic exposure with dose,"[9]; rats, 28-day oral",dose proportional
same,Major in vitro metabolic pathway,[10],UGT1A4-mediated glucuronidation
same,bioavailability,[11],41 to 55%
same,Severely toxic dose for 10% of animals (STD10),[12],100 mg/kg
same,IC50,CYP3A4; midazolam 1′-hydroxylation,6.5 µM
same,IC50,CYP3A4; testosterone 6β-hydroxylation,26 µM
